The results in this text go back to publication PMC4769088, “Antifungal Activity and Action Mechanism of Histatin 5-Halocidin Hybrid Peptides against Candida ssp” (PLoS ONE, 2016).

Assay [1] concerns Candida cells. In words: Candidacidal activity in energy depleted (azide) cells. The format is cell-based, Candida albicans. The following applies: cells pre-incubated for 60 min in 5 mM NaN3 at 30°C, colony count assay. As to the method: (§1) The candidacidal activities of the peptides were tested by using standard microdilution plate assays, radial diffusion assays and broth dilution assay slightly modified from the procedure recommended by the National Committee for Clinical Laboratory Standards. For the candidacidal assays, C. albicans cells were grown in YPD medium and washed twice with 10 mM sodium phosphate buffer (NaPB; Na2HPO4, NaH2PO4, pH 7.4). The cells (1 x 10^6) were then mixed with different concentrations of peptides and incubated at 30°C with constant shaking for 60 min. For energy depletion experiments, cells were pre-incubated with 10 mM NaPB containing 5 mM NaN3 at 30°C for 60 min before the addition of peptides. The cell suspensions were diluted in 10 mM NaPB and aliquots of 500 cells were spread onto YPD agar plates then incubated for 24 h at 30°C to visualize the surviving colonies. Cell survival was expressed as a percentage of that for the control, and the loss of viability was calculated as [1 x (number of colonies from peptide-treated cells/number of colonies from control cells)] x 100. Candidacidal assays were performed in triplicate. For the radial diffusion assay, C. albicans cells were grown in YPD medium overnight and washed twice with 10 mM NaPB. Washed yeast-phase C. albicans cells (1 x 10^6 CFU) were trapped in thin underlay gels containing 9 mM sodium phosphate, 1 mM sodium citrate buffer, 1% (wt/vol) agarose (A6013; Sigma), and 0.3 mg of Sabouraud dextrose broth (Difco)/ml. After incubation at 37°C for 3 h, a 10 ml overlay gel of 1% agarose and 6% Sabouraud dextrose broth was poured on the underlay gel and then the plates were incubated overnight at 37°C. The clear-zone diameters were measured to the nearest 0.1 mm and graphed against the peptide concentration. Zone diameters were expressed in units (0.1 mm = 1 unit). For the broth dilution assay, the Candida strains were cultured in LYM broth for 18 h at 30°C. The numbers of yeasts were counted using a hemocytometer. Stock peptide solutions were prepared to a concentration of 320 μg/ml in distilled water, and were then serially diluted twofold, to 5 μg/ml. 100 μl aliquots of the diluted culture media containing candida cells (1 x 10^3) were dispensed into the wells of 96-well polypropylene microtiter plates (Costar 3879, Corning, NY), to which peptide solution (11 μl) was then added. In the experiments conducted to assess the candidacidal activity of peptides in the presence of salt, we used LYM supplemented with 150 mM NaCl for the culture medium, which was mixed with the peptide solution. The antifungal activities were evaluated after 24 h of incubation at 30°C by the observation of visible turbidity the wells. The MIC values were expressed as intervals (a–b), with a representing the highest tested concentration at which microbes continue to grow, and b representing the lowest concentration at which growth inhibition could be detected.
To confirm the killing effect of the peptides, washed Candida cells (1 × 10^7 cells/ml) were treated with the peptides and propidium iodide (PI) was added. For energy depletion experiments, cells were pre-incubated with 10 mM NaPB containing 5 mM NaN3 at 30°C for 60 min before the addition of peptides. Propidium iodide (PI) uptake was measured using a multi reader and calculated with the formula [propidium iodide (PI) uptake value of peptide-treated cells—propidium iodide (PI) value of control cells]
Fig 6 The effects of azide on killing activity of peptides. […]

Assay [2] has as its system Candida cells. In words: ROS production (DCFH-DA fluorometric assay). The format is cell-based, Candida albicans. The following applies: 32 μg/ml peptide, 120 min, 10 μM DCFH-DA, ex 485 / em 530 nm. The protocol:
The amount of ROS produced by Candida cells treated with peptides was measured by a fluorometric assay with DCFHDA as described earlier. Briefly, the cells were adjusted to an OD600 of 1 in 10 ml of NaPB and centrifuged at 5000 ×g for 10 min. The cell pellet was then resuspended in NaPB and treated with peptides alone or with ascorbic acid. After the addition of 10 μM 2`,7`dichlorofluorescein diacetate (DCFH-DA), the fluorescence intensity of the induced ROS production was recorded every 10 min at excitation and emission wavelengths of 485 nm and 530 nm, respectively, in a Perkin Elmer 2030 Reader (Victor X3).  Fig 7 The effect of peptides on ROS generation. Time-dependency of DCF fluorescence as a measure of ROS generation (A) and killing activity (B) were determined in Candida cells treated with peptides (32 μg/ml) or peptides + Ascorbic acid (200 μg/ml) by Perkin Elmer 2030 reader (VictorX 3) and colony count assay, respectively. The fluorescence obtained with the cells treated with 10 mM of H2O2 served as positive control and the cells without peptide served as negative control. The fluorescent intensity of DCF was recorded every 10 min for 120 min at excitation and emission wavelengths of 485 and 530 nm, respectively.

Assay [3] concerns laminarin (β-1,3-glucan polymer), C. albicans cell wall component. In words: Binding/radial diffusion assay with laminarin. The following applies: peptide final 180 μg/ml, pre-incubated 2 h at 37°C, radial diffusion assay. The format is cell-based. As to the method:
as §1, with “In the experiments conducted to assess the candidacidal activity of peptides in the presence of salt, we used LYM supplemented with 150 mM NaCl for the culture medium, which was mixed with the peptide solution.” left out
Binding of hybrid peptides to the surface of C. albicans cells was examined by assessing the inhibitory effect of fungal cell wall components on the antimicrobial activity of the hybrid peptides. 20 μl of a pre-determined concentration of the peptides was added to 80 μl of each polysaccharide (0.07–40 mg/ml in 10 mM NaPB) including laminarin (β-1,3-glucan polymer; Sigma), pustulan (β-1,6-glucan polymer; Calbiochem) or mannan (mannose polymer; Sigma) and incubated for 2 h at 37°C. The inhibitory effects of the polysaccharides on the antimicrobial activity of the peptides were assessed by radial diffusion assay as described above. […]

Where a SMILES comes first, the peptide text is derived from it. Bridges are numbered along the chain shown (N, C = ends). Roman numbers before positions name the chains, in order. Where no end group is shown, it is not given here.

Regarding `C[C@H](NC(=O)[C@H](Cc1c[nH]cn1)NC(=O)[C@H](CO)NC(=O)[C@@H](N)CC(=O)O)C(=O)N[C@@H](CCCCN)C(=O)N[C@@H](CCCNC(=N)N)C(=O)N[C@@H](Cc1c[nH]cn1)C(=O)N[C@@H](Cc1c[nH]cn1)C(=O)NCC(=O)N[C@@H](Cc1ccc(O)cc1)C(=O)N[C@@H](CCCCN)C(=O)N[C@@H](CCCNC(=N)N)C(=O)N[C@@H](CCCCN)C(=O)N[C@@H](Cc1ccccc1)C(=O)N[C@@H](Cc1c[nH]cn1)C(=O)N[C@@H](CCC(=O)O)C(=O)N[C@@H](CCCCN)C(=O)N[C@@H](Cc1c[nH]cn1)C(=O)N[C@@H](Cc1c[nH]cn1)C(=O)N[C@@H](CO)C(=O)N[C@@H](Cc1c[nH]cn1)C(=O)N[C@@H](CCCNC(=N)N)C(=O)NCC(=O)N[C@@H](Cc1ccc(O)cc1)C(=O)O` [Hst 5, Histatin 5], in the assay with Candida cells [1], the “antimicrobial activities in energy depleted cells” value (shortened to “antimicrobial activities”) is given as “significantly reduced”. Besides, the “DCF fluorescence intensity (ROS generation)” value (“DCF fluorescence intensity” below) in the assay with Candida cells [2] is given as “constant increase in fluorescence intensity”. Further, the “laminarin concentration at which antimicrobial activity was drastically decreased by pre-incubation” value in assay [3] came out at 2.5 mg/mL.

For the molecule `CC(C)C[C@H](NC(=O)CNC(=O)[C@H](Cc1c[nH]cn1)NC(=O)[C@H](Cc1c[nH]cn1)NC(=O)[C@H](CC(C)C)NC(=O)[C@H](CC(C)C)NC(=O)[C@H](C)NC(=O)[C@H](CC(N)=O)NC(=O)[C@H](CC(C)C)NC(=O)[C@@H](N)Cc1c[nH]c2ccccc12)C(=O)N[C@@H](CC(N)=O)C(=O)N[C@@H](CSSC[C@H](NC(=O)[C@H](CC(N)=O)NC(=O)[C@H](CC(C)C)NC(=O)CNC(=O)[C@H](Cc1c[nH]cn1)NC(=O)[C@H](Cc1c[nH]cn1)NC(=O)[C@H](CC(C)C)NC(=O)[C@H](CC(C)C)NC(=O)[C@H](C)NC(=O)[C@H](CC(N)=O)NC(=O)[C@H](CC(C)C)NC(=O)[C@@H](N)Cc1c[nH]c2ccccc12)C(=O)N[C@@H](C)C(=O)N[C@@H](CCCCN)C(=O)NCC(=O)N[C@H](C(=O)N[C@@H](CC(C)C)C(=O)N[C@@H](C)C(N)=O)C(C)C)C(=O)N[C@@H](C)C(=O)N[C@@H](CCCCN)C(=O)NCC(=O)N[C@H](C(=O)N[C@@H](CC(C)C)C(=O)N[C@@H](C)C(N)=O)C(C)C` [di-18Hc, reference compound] (I: H-WLNALLHHGLNCAKGVLA-NH2 / II: H-WLNALLHHGLNCAKGVLA-NH2; disulfide I:12-II:12 (inferred); N-terminus assumed), the “antimicrobial activities” value with Candida cells [1] is “not inhibited”. Besides, the “DCF fluorescence intensity” value with Candida cells [2] is given as “little fluorescence”. Moreover, the “laminarin concentration at which antimicrobial activity was drastically decreased by pre-incubation” value in assay [3] worked out at 0.3 mg/mL.

With `CC(C)C[C@H](NC(=O)CNC(=O)[C@H](Cc1c[nH]cn1)NC(=O)[C@H](Cc1c[nH]cn1)NC(=O)[C@H](CCCNC(=N)N)NC(=O)[C@H](CCCCN)NC(=O)[C@H](C)N)C(=O)N[C@@H](CC(N)=O)C(=O)N[C@@H](CSSC[C@H](NC(=O)[C@H](CC(N)=O)NC(=O)[C@H](CC(C)C)NC(=O)CNC(=O)[C@H](Cc1c[nH]cn1)NC(=O)[C@H](Cc1c[nH]cn1)NC(=O)[C@H](CCCNC(=N)N)NC(=O)[C@H](CCCCN)NC(=O)[C@H](C)N)C(=O)N[C@@H](C)C(=O)N[C@@H](CCCCN)C(=O)N[C@@H](Cc1ccccc1)C(=O)N[C@@H](Cc1c[nH]cn1)C(N)=O)C(=O)N[C@@H](C)C(=O)N[C@@H](CCCCN)C(=O)N[C@@H](Cc1ccccc1)C(=O)N[C@@H](Cc1c[nH]cn1)C(N)=O` [di-PH2] (I: H-AKRHHGLNCAKFH-NH2 / II: H-AKRHHGLNCAKFH-NH2; disulfide I:9-II:9 (inferred); N-terminus assumed), the “antimicrobial activities” value in the assay on Candida cells [1] is reported as “significantly reduced”. Moreover, in the assay on Candida cells [2], the “DCF fluorescence intensity” value is “constant increase in fluorescence intensity”. The “laminarin concentration at which antimicrobial activity was drastically decreased by pre-incubation” value in assay [3] is 5 mg/mL.

In the case of `CC(C)C[C@H](NC(=O)[C@@H](N)Cc1c[nH]c2ccccc12)C(=O)N[C@@H](CC(N)=O)C(=O)N[C@@H](C)C(=O)N[C@@H](CCCCN)C(=O)N[C@@H](CCCNC(=N)N)C(=O)N[C@@H](Cc1c[nH]cn1)C(=O)N[C@@H](Cc1c[nH]cn1)C(=O)NCC(=O)N[C@@H](Cc1ccc(O)cc1)C(=O)N[C@@H](CCCCN)C(=O)N[C@@H](CSSC[C@H](NC(=O)[C@H](CCCCN)NC(=O)[C@H](Cc1ccc(O)cc1)NC(=O)CNC(=O)[C@H](Cc1c[nH]cn1)NC(=O)[C@H](Cc1c[nH]cn1)NC(=O)[C@H](CCCNC(=N)N)NC(=O)[C@H](CCCCN)NC(=O)[C@H](C)NC(=O)[C@H](CC(N)=O)NC(=O)[C@H](CC(C)C)NC(=O)[C@@H](N)Cc1c[nH]c2ccccc12)C(=O)N[C@@H](CCCCN)C(=O)N[C@@H](Cc1ccccc1)C(=O)N[C@@H](Cc1c[nH]cn1)C(N)=O)C(=O)N[C@@H](CCCCN)C(=O)N[C@@H](Cc1ccccc1)C(=O)N[C@@H](Cc1c[nH]cn1)C(N)=O` [di-WP2] (I: H-WLNAKRHHGYKCKFH-NH2 / II: H-WLNAKRHHGYKCKFH-NH2; disulfide I:12-II:12 (inferred); N-terminus assumed), the “antimicrobial activities” value in the assay on Candida cells [1] is on record as “not inhibited”. In addition, the “DCF fluorescence intensity” value in the assay with Candida cells [2] is given as “little fluorescence”. Also, the “laminarin concentration at which antimicrobial activity was drastically decreased by pre-incubation” value in assay [3] came out at 1.25 mg/mL.

In the case of AKRHHGYKRKFH-NH2 [P113], the “antimicrobial activities” value with Candida cells [1] is reported as “significantly reduced”. For the same molecule, the “DCF fluorescence intensity” value in the assay on Candida cells [2] is “constant increase in fluorescence intensity”. In addition, in assay [3], the “laminarin concentration at which antimicrobial activity was drastically decreased by pre-incubation” value amounted to 5 mg/mL.
